# Laboratory results taken from PubChem BioAssay AID1918941 (Molecular Pharmacology Branch, DTP, NCI, 2023).
# “And” between values parts separate entries of the source, which are not always exact repeats. Equal values may be shown once.
# System: SW 1271 complex spheroids, viability
# Test: Anticancer human tumor SW 1271 cell line growth inhibition [LSD1];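 further: spheroids exposed to agents for 7 days before luminescence read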;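 on viability, T/C: 100% = DMSO vehicle control viability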
# Details: for viability, T/C: stronger effect = lower value
# Description: Multicellular complex tumor spheroid response to LSD1 Inhibitor Iadademstat in combination with a variety of drugs and investigational agents in selected tumor cell lines
# The current study was undertaken to assess response to LSD1 inhibitors in combination with standard-of-care drugs and investigational agents in solid tumor complex spheroid models as well as in the K-562 leukemia. Complex spheroids include a stromal component modeled by human endothelial cells (HUVEC) and fibroblasts modeled by human mesenchymal stem cells (MSCs). The concentration ranges selected for each drug and investigational agent were based upon clinically achievable concentrations if the clinical Cmax of the agent was known.
# Compounds. The drugs and investigational agents used in this study are listed on Table 1. All of the agents used, including staurosporine (NSC755774) and gemcitabine (NSC613327), were obtained from the Developmental Therapeutics Program, NCI. FDA-approved anticancer drugs are available from the NCI at http://dtp.nci.nih.gov/branches/dscb/oncology_drugset_explanation.html. Drugs and investigational agents were >95% pure by proton nuclear magnetic resonance (NMR) and liquid chromatography/mass spectrometry (LC/MS). Stock solutions were prepared at 400x in DMSO, stored at -70 degrees C, and diluted in fresh medium prior to their use. The final concentration of DMSO in cell culture wells never exceeded 0.25% (v/v). The FDA-approved anticancer drug set is available from the Developmental Therapeutics Program at https://dtp.cancer.gov/organization/dscb/obtaining/available_plates.htm. All drugs and investigational agents were tested over a range starting from a high concentration at or near the clinical Cmax and decreasing in half-log increments. If the clinical Cmax for an agent had not been determined, the highest concentration tested was 10 microM.
# Cell Lines. The patient-derived cancer cell (PDC) lines: 292921-168-R-J2-PDC, K24384-001-R-PDC, and 521955-158-R2-J5-PDC pancreatic carcinomas, 556581-035-R-J1 ovarian carcinoma, 324938-238-R-J1-PDC, 855422-203-R-J1-PDC and 883617-216-R-J1-PDC urothelial bladder carcinomas, 743489-274-T-PDC renal cell carcinoma, 138582-R-J1 Merkel cell tumor, K60290-347-R-J1 and K57222-313-R-J1-PDC glioblastomas, 653999-131-R-J2-PDC, LG0703-F948-PDC, and 349418-098-R-PDC non-small cell lung carcinomas, 885512-296-R-J2-PDC, 171881-019-R-J1-PDC breast carcinomas and 186277-243-T-J2-PDC and 233499-124-R-J2-PDC colon carcinomas were obtained from the NCI Patient-Derived Models Repository (PDMR, https://pdmr.cancer.gov). The established cell lines NCI/ADR-RES (RRID:CVCL_14520 and OVCAR-5 (RRID:CVCL_1628) ovarian carcinomas, 786-O (RRID:CVCL_1051) and A498 (RRID:CVCL_A498) renal cell carcinoma, NCI-H211 (ATCC, cat. CRL-5824; RRID:CVCL_1529), NCI-H196 (ATCC, cat. CRL-5823, RRID:CVCL_1509), SW 1271 (ATCC, cat. CRL-2177, RRID:CVCL_1716) and NCI-H1876 (ATCC, cat. CRL-5902, RRID:CVCL_1503) small cell lung carcinomas, MDA-MB-231 (RRID:CVCL_0062) and MDA-MB-468 (RRID:CVCL_0419)breast carcinomas (10-12). Pooled donor human umbilical vein endothelial cells (HUVEC, Lonza, cat. CC-2519) and human mesenchymal stem cells (hMSC, Lonza, cat. PT-2501) were purchased from Lonza (Walkersville, MD).
# Cell Culture. All cells were maintained in an incubator at 37 degrees C and 5% CO2 with 95% humidity. The PDC lines were cultured according to standard operating procedures established by the NCI PDMR (https://pdmr.cancer.gov). Briefly all PDCs were thawed and cultured in Matrigel-coated flasks prepared with a working solution of 1X Ham's F-12 nutrient mix, without supplementation (Invitrogen, Waltham, MA, cat. 11765054), 100 U/mL penicillin-streptomycin (Invitrogen, cat. 15140122), and 2.5% Matrigel (Corning Inc., Corning, NY, cat. 354248) for the first three passages. […]
Compound,"viability, T/C (compound 0.00316 µM)","viability, T/C (compound 0.01 µM)","viability, T/C (compound 0.0316 µM)","viability, T/C (compound 0.1 µM)",IC50 (curve of compound),"viability, T/C (compound 0.316 µM)","viability, T/C (compound 1 µM)","viability, T/C (compound 0.00949 µM)","viability, T/C (compound 0.03 µM)","viability, T/C (compound 0.0949 µM)","viability, T/C (compound 0.3 µM)",further results
CC(C)CC(NC(=O)C(Cc1ccccc1)NC(=O)c1cnccn1)B(O)O (stereo unspecified),0.34% and 0.36%,0.16% and 0.3%,0.16% and 0.18%,0.24% and 0.23%,< 0.316 nM,–,–,–,–,–,–,"viability, T/C (compound 0.000316 µM): 1.55% and 4.22%; viability, T/C (compound 0.001 µM): 0.42% and 0.29%"
CC(C)CC(NC(=O)CNC(=O)c1cc(Cl)ccc1Cl)B1OC(=O)CC(CC(=O)O)(C(=O)O)O1 (stereo unspecified),74.4% and 88%,6.54% and 16.7%,0.32% and 0.39%,0.31% and 0.4%,4.78 nM and 5.84 nM,–,–,–,–,–,–,"viability, T/C (compound 0.000316 µM): 99.2% and 97.3%; viability, T/C (compound 0.001 µM): 91.3% and 86.2%"
CC(C)c1c(-c2ccccc2)nc2c(C#N)c[nH]n2c1=O,–,–,85.1% and 98.1%,83.1% and 98.6%,> 10000 nM,83.4% and 100%,89.3% and 88.1%,–,–,–,–,"viability, T/C (compound 3.16 µM): 86.2% and 91.6%; viability, T/C (compound 10 µM): 75.1% and 94.7%"
CC1(C)CCC(CN2CCN(c3ccc(C(=O)NS(=O)(=O)c4ccc(NCC5CCOCC5)c([N+](=O)[O-])c4)c(Oc4cnc5[nH]ccc5c4)c3)CC2)=C(c2ccc(Cl)cc2)C1,–,–,93.1% and 103%,97.7% and 112%,2170 nM and 3600 nM,87.7% and 98.3%,101% and 102%,–,–,–,–,"viability, T/C (compound 3.16 µM): 28.1% and 55.8%; viability, T/C (compound 10 µM): 0.45% and 4.57%"
CC1COCCN1c1cc(-c2ccnn2C)c2ccnc(-c3ccn[nH]3)c2n1 (stereo unspecified),72.4% and 71.8%,72.6% and 63.3%,50.7% and 59%,50.3% and 47.2%,108 nM and 92.1 nM,48.2% and 43.4%,30.1% and 28.4%,–,–,–,–,–
CC1COCCN1c1cc(C2(S(C)(=N)=O)CC2)nc(-c2ccnc3[nH]ccc23)n1 (stereo unspecified),–,–,106% and 85.9%,97% and 88.6%,> 10000 nM and 3980 nM,88.2% and 78.9%,79% and 65.3%,–,–,–,–,"viability, T/C (compound 3.16 µM): 62% and 54.3%; viability, T/C (compound 10 µM): 62.1% and 39.4%"
CCN(c1cc(-c2ccc(CN3CCOCC3)cc2)cc(C(=O)NCc2c(C)cc(C)[nH]c2=O)c1C)C1CCOCC1,–,–,–,–,> 3000 nM,–,–,98.8% and 104%,116% and 109%,90.8% and 91.2%,103% and 98.9%,"viability, T/C (compound 0.949 µM): 78.3% and 82.5%; viability, T/C (compound 3 µM): 73.6% and 71.4%"
CC[C@@]1(O)C(=O)OCc2c1cc1n(c2=O)Cc2cc3c(CN(C)C)c(O)ccc3nc2-1,72.7% and 75.3%,66.6% and 85.6%,58.7% and 65.7%,49.4% and 53.2%,> 100 nM,–,–,–,–,–,–,"viability, T/C (compound 0.000316 µM): 88.2% and 98.2%; viability, T/C (compound 0.001 µM): 89.6% and 109%"
CCc1c2c(nc3ccc(O)cc13)-c1cc3c(c(=O)n1C2)COC(=O)[C@]3(O)CC,–,–,–,–,3.64 nM and < 0.949 nM,–,–,23.3% and 28.8%,7.65% and 6.53%,6.15% and 5.62%,3.93% and 13.3%,"viability, T/C (compound 0.000949 µM): 57.8% and 46.7%; viability, T/C (compound 0.003 µM): 55.8% and 41.6%"
COc1cc(C2c3cc4c(cc3C(OC3OC5COC(C)OC5C(O)C3O)C3COC(=O)C23)OCO4)cc(OC)c1O (stereo unspecified),–,–,–,–,> 3000 nM,–,–,84.9% and 100%,79.2% and 82.9%,72.4% and 64.1%,83.9% and 64.4%,"viability, T/C (compound 0.949 µM): 62.5% and 66.3%; viability, T/C (compound 3 µM): 54.7% and 53.3%"
COc1cc(Nc2ncc3c(n2)-c2ccc(Cl)cc2C(c2c(F)cccc2OC)=NC3)ccc1C(=O)O,92.2% and 73.8%,86.8% and 78.9%,72.8% and 73.9%,58.6% and 59%,179 nM and 164 nM,42.5% and 36.9%,14.1% and 15.6%,–,–,–,–,–
COc1ccc([C@@H](O)c2cc(-c3ncnc4cc(N5CCOCC5)ccc34)c(F)cc2Cl)nn1,–,–,79.9% and 85.5%,74.7% and 91.9%,523 nM and 741 nM,54.5% and 64%,40.4% and 45.4%,–,–,–,–,"viability, T/C (compound 3.16 µM): 31.7% and 28.2%; viability, T/C (compound 10 µM): 20.3% and 21.4%"
Cn1ncnc1C1c2n[nH]c(=O)c3cc(F)cc(c23)NC1c1ccc(F)cc1 (stereo unspecified),87.8% and 87%,91.1% and 85%,84.2% and 92.2%,91.7% and 99.5%,> 100 nM,–,–,–,–,–,–,"viability, T/C (compound 0.000316 µM): 89.1% and 97.2%; viability, T/C (compound 0.001 µM): 94.9% and 81.7%"
NC1CC1c1ccc(-c2cccc(O)c2)cc1 (stereo unspecified),–,–,–,86.2%,–,–,–,–,–,–,–,"viability, T/C (compound 10 µM): 63.2% [middle of 25 runs]; IC50 (compound alone, run of 02/21/2022): > 10000 nM"
NC1CCC(NC2CC2c2ccccc2)CC1 (stereo unspecified),–,–,–,–,–,77.1% and 85.3%,–,–,–,–,–,"IC50 (compound alone, run of 02/15/2022): > 10000 nM"
NS(=O)(=O)OCC1CC(n2ccc3c(NC4CCc5ccccc54)ncnc32)CC1O (stereo unspecified),–,–,–,–,> 3000 nM,–,–,159% and 149%,127% and 122%,83.5% and 85.6%,89.7% and 67.7%,"viability, T/C (compound 0.949 µM): 73.1% and 74.3%; viability, T/C (compound 3 µM): 82.1% and 73.2%"
Nc1ccccc1NC(=O)c1ccc(CNC(=O)OCc2cccnc2)cc1,–,–,–,–,156 nM and 127 nM,–,–,90.7% and 84.4%,83.4% and 69.1%,61.4% and 59.8%,35.6% and 29.2%,"viability, T/C (compound 0.949 µM): 10.2% and 7.11%; viability, T/C (compound 3 µM): 6.48% and 7.88%"
Nc1ccn(C2OC(CO)C(O)C2(F)F)c(=O)n1 (stereo unspecified),–,–,–,–,> 300 nM,–,–,64.3% and 67.8%,66% and 66.1%,67.3% and 68.9%,64.6% and 74.8%,"viability, T/C (compound 0.000949 µM): 73.7% and 82.6%; viability, T/C (compound 0.003 µM): 73.8% and 71.3%"
Nc1ncn(C2CC(O)C(CO)O2)c(=O)n1 (stereo unspecified),96% and 88.2%,86.6% and 105%,83.1% and 88.3%,86.9% and 93.3%,> 1000 nM,83% and 80.3%,86.7% and 89.8%,–,–,–,–,–
Nc1ncn(C2CC(O)C(CO)S2)c(=O)n1 (stereo unspecified),–,–,–,–,> 300 nM,–,–,99.5% and 86.3%,108% and 83.2%,94.7% and 91.1%,88.5% and 71.2%,"viability, T/C (compound 0.000949 µM): 105% and 83.6%; viability, T/C (compound 0.003 µM): 112% and 88.6%"
O=C(C=Cc1cccc(S(=O)(=O)Nc2ccccc2)c1)NO,–,–,–,–,228 nM and 109 nM,–,–,89.7% and 88.1%,74.9% and 70.5%,57.1% and 58.1%,19.1% and 23.3%,"viability, T/C (compound 0.949 µM): 9.01% and 12.3%"
O=C(C=Cn1cnc(-c2cc(C(F)(F)F)cc(C(F)(F)F)c2)n1)NNc1cnccn1,92% and 82.7%,87.1% and 89.1%,80% and 75.1%,45.3% and 51.4%,153 nM and 147 nM,47.8% and 40.4%,21.6% and 16.6%,–,–,–,–,–
O=C(c1cc(Cc2n[nH]c(=O)c3ccccc23)ccc1F)N1CCN(C(=O)C2CC2)CC1,–,–,84.9% and 80.2%,85.2% and 85.3%,> 10000 nM,81.4% and 76.1%,81.5% and 85.4%,–,–,–,–,"viability, T/C (compound 3.16 µM): 90.2% and 77%; viability, T/C (compound 10 µM): 87.5% and 68.8%"
